From patent publication US20250011352A1, “SOLID FORMS” (priority 2023, published 2025)
Counter-ions that a name gives are not always drawn. Like-named read-outs stand apart in the source and are kept apart here.

How the values were obtained:
[1] = Dynamic Vapor Sorption (DVS) hygroscopicity; format: physicochemical; details: from 0 to 90% RH at 25° C.
Procedure: Dynamic Vapor Sorption (DVS) was used to study hygroscopicity on Model Q5000 SA (TA Instruments, New Castle, DE). A sample (1-10 mg) was placed in an aluminum pan and loaded on the sample side of the twin pan balance. The water sorption and desorption were studied as a function of relative humidity (RH) at 25° C. in 10% RH increments from 0% RH to 90% RH and then back to 0%. […] Data analysis was performed using Universal Analysis 2000 Version 4.7A (TA Instruments, New Castle, DE).

[2] = Atropisomer interconversion detected by 19F-NMR in deuterated DMSO; format: physicochemical; details: deuterated DMSO solution, deuterated DMSO at 25° C.
Procedure: Compound 1 has two restricted rotational axes, resulting in 4 atropisomers (see FIG. 1) that may be detected by ^19F-NMR.
^19F Nuclear Magnetic Resonance spectra were collected on a Varian 400-MR 400 MHz instrument with 7620AS sample changer. Some of the parameters were adjusted as follows: number of scans: 1; spin: 0 (off); steady state scans: 0 (off). Samples were prepared as a solution of 20 mg in 0.75 mL of dimethyl sulfoxide-d6. The time from solvent addition to end of data acquisition should be ≤5 minutes. Off-line analysis was conducted using MNova software.

SMILES	water uptake (DVS) [1]	half-life at 26.7 mg/mL ([2]; read-out: half-life of conversion from the major to the minor atropisomer for the biaryl rotation (converted))	half-life at 26.7 mg/mL ([2]; read-out: half-life of interconversion at the 2nd rotational axis)
Cc1cc(CC(=O)O)c(C(C)(C)CC(=O)N(c2nn(CC(F)(F)F)c3c(-c4ccc(C#CC(C)(C)S(C)(=O)=O)nc4[C@H](Cc4cc(F)cc(F)c4)NC(=O)Cn4nc(C(F)(F)F)c5c4C(F)(F)[C@@H]4C[C@H]54)ccc(Cl)c23)S(C)(=O)=O)c(OP(=O)(O)O)c1 [Compound 1, crystalline Form II]	about 1%	–	–
Cc1cc(CC(=O)O)c(C(C)(C)CC(=O)N(c2nn(CC(F)(F)F)c3c(-c4ccc(C#CC(C)(C)S(C)(=O)=O)nc4[C@H](Cc4cc(F)cc(F)c4)NC(=O)Cn4nc(C(F)(F)F)c5c4C(F)(F)[C@@H]4C[C@H]54)ccc(Cl)c23)S(C)(=O)=O)c(OP(=O)(O)O)c1 [Compound 1, crystalline Form I]	about 4%	–	–
Cc1cc(CC(=O)O)c(C(C)(C)CC(=O)N(c2nn(CC(F)(F)F)c3c(-c4ccc(C#CC(C)(C)S(C)(=O)=O)nc4[C@H](Cc4cc(F)cc(F)c4)NC(=O)Cn4nc(C(F)(F)F)c5c4C(F)(F)[C@@H]4C[C@H]54)ccc(Cl)c23)S(C)(=O)=O)c(OP(=O)(O)O)c1 [Compound 1 succinate]	about 1.7%	–	–
Cc1cc(CC(=O)O)c(C(C)(C)CC(=O)N(c2nn(CC(F)(F)F)c3c(-c4ccc(C#CC(C)(C)S(C)(=O)=O)nc4[C@H](Cc4cc(F)cc(F)c4)NC(=O)Cn4nc(C(F)(F)F)c5c4C(F)(F)[C@@H]4C[C@H]54)ccc(Cl)c23)S(C)(=O)=O)c(OP(=O)(O)O)c1 [Compound 1, crystalline Form III]	about 1.6%	–	–
Cc1cc(CC(=O)O)c(C(C)(C)CC(=O)N(c2nn(CC(F)(F)F)c3c(-c4ccc(C#CC(C)(C)S(C)(=O)=O)nc4[C@H](Cc4cc(F)cc(F)c4)NC(=O)Cn4nc(C(F)(F)F)c5c4C(F)(F)[C@@H]4C[C@H]54)ccc(Cl)c23)S(C)(=O)=O)c(OP(=O)(O)O)c1 [Compound 1, Material A]	about 4.6%	–	–
Cc1cc(CC(=O)O)c(C(C)(C)CC(=O)N(c2nn(CC(F)(F)F)c3c(-c4ccc(C#CC(C)(C)S(C)(=O)=O)nc4[C@H](Cc4cc(F)cc(F)c4)NC(=O)Cn4nc(C(F)(F)F)c5c4C(F)(F)[C@@H]4C[C@H]54)ccc(Cl)c23)S(C)(=O)=O)c(OP(=O)(O)O)c1 [Compound 1 maleate]	about 2.5%	–	–
Cc1cc(CC(=O)O)c(C(C)(C)CC(=O)N(c2nn(CC(F)(F)F)c3c(-c4ccc(C#CC(C)(C)S(C)(=O)=O)nc4[C@H](Cc4cc(F)cc(F)c4)NC(=O)Cn4nc(C(F)(F)F)c5c4C(F)(F)[C@@H]4C[C@H]54)ccc(Cl)c23)S(C)(=O)=O)c(OP(=O)(O)O)c1 [Compound 1, 2-(2-(4-(N-(4-chloro-7-(2-((S)-1-(2-((3bS,4aR)-5,5-difluoro-3-(trifluoromethyl)-3b,4,4a,5-tetrahydro-1H-cyclopropa[3,4]cyclopenta[1,2-c]pyrazol-1-yl)acetamido)-2-(3,5-difluorophenyl)ethyl)-6-(3-methyl-3-(methylsulfonyl)but-1-yn-1-yl)pyridin-3-yl)-1-(2,2,2-trifluoroethyl)-1H-indazol-3-yl)methylsulfonamido)-2-methyl-4-oxobutan-2-yl)-5-methyl-3-(phosphonooxy)phenyl)acetic acid]	–	~4300 min	~7 min
Cc1cc(CC(=O)OC(C)(C)C)c(C(C)(C)CC(=O)N(c2nn(CC(F)(F)F)c3c(-c4ccc(C#CC(C)(C)S(C)(=O)=O)nc4[C@H](Cc4cc(F)cc(F)c4)NC(=O)Cn4nc(C(F)(F)F)c5c4C(F)(F)[C@@H]4C[C@H]54)ccc(Cl)c23)S(C)(=O)=O)c(OP(=O)(OC(C)(C)C)OC(C)(C)C)c1 [Compound 2, crystalline Form I]	about 2.7%	–	–
